In patent publication EP0238060B1, “Cephalosporin derivatives, processes for their preparation and antibacterial agents” (Banyu Pharmaceutical Co., Ltd., priority 1986, dated 1987):
Converted amounts (≈) assume the structure as drawn.

Tests used:
Experiment in all cases: In vitro antibacterial activity, agar plate dilution method (MIC)
A.calcoaceticus No. 4 = assay type: cell-based; settings: Acinetobacter calcoaceticus; A.calcoaceticus No. 4; Mueller Hinton agar, inoculum 10⁶ CFU/ml, 37°C, 16 hours; read-out: Minimum Inhibitory Concentration (MIC: µg/ml)
Description: (§1) The in vitro antibacterial activities of the compounds of the present invention against various microorganisms, were measured by the following agar plate dilution method. One platinum loopfull of each test microorganism incubated overnight in Mueller Hinton broth, was inoculated to Mueller Hinton agar (inoculum size: l0⁶ CFU/ml). Such culture media containing various antibiotics in various concentrations were prepared. After incubation at 37°C for l6 hours, the minimum inhibitory concentrations (MIC: µg/ml) were measured. As comparative compounds, Cefotaxime, Ceftazidime and the compounds of Reference Examples l to 4 were employed.

C.freundii GN346/16 = assay type: cell-based; settings: Citrobacter freundii; C.freundii GN346/16; Mueller Hinton agar, inoculum 10⁶ CFU/ml, 37°C, 16 hours; read-out: Minimum Inhibitory Concentration (MIC: µg/ml)
Description: as §1

C.freundii GN346 = assay type: cell-based; settings: Citrobacter freundii; C.freundii GN346 (β-Lactamase-producing strain); Mueller Hinton agar, inoculum 10⁶ CFU/ml, 37°C, 16 hours; read-out: Minimum Inhibitory Concentration (MIC: µg/ml)
Description: as §1

E.cloacae 963 = assay type: cell-based; settings: Enterobacter cloacae; E.cloacae 963; Mueller Hinton agar, inoculum 10⁶ CFU/ml, 37°C, 16 hours; read-out: Minimum Inhibitory Concentration (MIC: µg/ml)
Description: as §1

E.cloacae Nek 39 = assay type: cell-based; settings: Enterobacter cloacae, NEK39; E.cloacae Nek 39 (β-Lactamase-producing strain); Mueller Hinton agar, inoculum 10⁶ CFU/ml, 37°C, 16 hours; read-out: Minimum Inhibitory Concentration (MIC: µg/ml)
Description: as §1

E.coli CSH(RE45) = assay type: cell-based; settings: Escherichia coli, 16 h, read-out: Minimum Inhibitory Concentration (MIC: µg/ml)
Description: as §1

E.coli CSH2 (RK1) = assay type: cell-based; settings: Escherichia coli, 16 h, read-out: Minimum Inhibitory Concentration (MIC: µg/ml)
Description: as §1

E.coli GN5482 = assay type: cell-based; settings: Escherichia coli; E.coli GN5482 (β-Lactamase-producing strain); Mueller Hinton agar, inoculum 10⁶ CFU/ml, 37°C, 16 hours; read-out: Minimum Inhibitory Concentration (MIC: µg/ml)
Description: as §1

E.coli NIHJ JC2 = assay type: cell-based; settings: Escherichia coli, NIHJJC2; E.coli NIHJ JC2; Mueller Hinton agar, inoculum 10⁶ CFU/ml, 37°C, 16 hours; read-out: Minimum Inhibitory Concentration (MIC: µg/ml)
Description: as §1

K.oxytoca GN10650 = assay type: cell-based; settings: Klebsiella oxytoca; K.oxytoca GN10650 (β-Lactamase-producing strain); Mueller Hinton agar, inoculum 10⁶ CFU/ml, 37°C, 16 hours; read-out: Minimum Inhibitory Concentration (MIC: µg/ml)
Description: as §1

K.pneumoniae No. 42 = assay type: cell-based; settings: Klebsiella pneumoniae; K.pneumoniae No. 42 (β-Lactamase-producing strain); Mueller Hinton agar, inoculum 10⁶ CFU/ml, 37°C, 16 hours; read-out: Minimum Inhibitory Concentration (MIC: µg/ml)
Description: as §1

K.pneumoniae PCI-602 = assay type: cell-based; settings: Klebsiella pneumoniae, PCI602; K.pneumoniae PCI-602; Mueller Hinton agar, inoculum 10⁶ CFU/ml, 37°C, 16 hours; read-out: Minimum Inhibitory Concentration (MIC: µg/ml)
Description: as §1

M.luteus ATCC9341 = assay type: cell-based; settings: Micrococcus luteus; M.luteus ATCC9341; Mueller Hinton agar, inoculum 10⁶ CFU/ml, 37°C, 16 hours; read-out: Minimum Inhibitory Concentration (MIC: µg/ml)
Description: as §1

M.morganii GN5407 = assay type: cell-based; settings: Morganella morganii; M.morganii GN5407 (β-Lactamase-producing strain); Mueller Hinton agar, inoculum 10⁶ CFU/ml, 37°C, 16 hours; read-out: Minimum Inhibitory Concentration (MIC: µg/ml)
Description: as §1

P.vulgaris HX-19 = assay type: cell-based; settings: Proteus vulgaris, HX19; P.vulgaris HX-19; Mueller Hinton agar, inoculum 10⁶ CFU/ml, 37°C, 16 hours; read-out: Minimum Inhibitory Concentration (MIC: µg/ml)
Description: as §1

P.vulgaris No. 33 = assay type: cell-based; settings: Proteus vulgaris; P.vulgaris No. 33 (β-Lactamase-producing strain); Mueller Hinton agar, inoculum 10⁶ CFU/ml, 37°C, 16 hours; read-out: Minimum Inhibitory Concentration (MIC: µg/ml)
Description: as §1

Ps.aeruginosa AK 109 = assay type: cell-based; settings: Pseudomonas aeruginosa, AK109; Ps.aeruginosa AK 109; Mueller Hinton agar, inoculum 10⁶ CFU/ml, 37°C, 16 hours; read-out: Minimum Inhibitory Concentration (MIC: µg/ml)
Description: as §1

Ps.aeruginosa AKR17 = assay type: cell-based; settings: Pseudomonas aeruginosa; Ps.aeruginosa AKR17; Mueller Hinton agar, inoculum 10⁶ CFU/ml, 37°C, 16 hours; read-out: Minimum Inhibitory Concentration (MIC: µg/ml)
Description: as §1

Ps.aeruginosa IFO3445 = assay type: cell-based; settings: Pseudomonas aeruginosa; Ps.aeruginosa IFO3445; Mueller Hinton agar, inoculum 10⁶ CFU/ml, 37°C, 16 hours; read-out: Minimum Inhibitory Concentration (MIC: µg/ml)
Description: as §1

S.aureus 209P NIHJ-JC1 = assay type: cell-based; settings: Staphylococcus aureus; S.aureus 209P NIHJ-JC1; Mueller Hinton agar, inoculum 10⁶ CFU/ml, 37°C, 16 hours; read-out: Minimum Inhibitory Concentration (MIC: µg/ml)
Description: as §1

S.aureus BB5703 = assay type: cell-based; settings: Staphylococcus aureus; S.aureus BB5703; Mueller Hinton agar, inoculum 10⁶ CFU/ml, 37°C, 16 hours; read-out: Minimum Inhibitory Concentration (MIC: µg/ml)
Description: as §1

S.aureus JS1 = assay type: cell-based; settings: Staphylococcus aureus; S.aureus JS1 (β-Lactamase-producing strain); Mueller Hinton agar, inoculum 10⁶ CFU/ml, 37°C, 16 hours; read-out: Minimum Inhibitory Concentration (MIC: µg/ml)
Description: as §1

S.epidermidis IAM12012 = assay type: cell-based; settings: Staphylococcus epidermidis; S.epidermidis IAM12012; Mueller Hinton agar, inoculum 10⁶ CFU/ml, 37°C, 16 hours; read-out: Minimum Inhibitory Concentration (MIC: µg/ml)
Description: as §1

S.marcescens IAM 1184 = assay type: cell-based; settings: Serratia marcescens, IAM1184; S.marcescens IAM 1184; Mueller Hinton agar, inoculum 10⁶ CFU/ml, 37°C, 16 hours; read-out: Minimum Inhibitory Concentration (MIC: µg/ml)
Description: as §1

S.marcescens No. 16-2 = assay type: cell-based; settings: Serratia marcescens, NO.162; S.marcescens No. 16-2 (β-Lactamase-producing strain); Mueller Hinton agar, inoculum 10⁶ CFU/ml, 37°C, 16 hours; read-out: Minimum Inhibitory Concentration (MIC: µg/ml)
Description: as §1

Ps.cepacia 23 = assay type: cell-based, Pseudomonas cepacia; settings: Burkholderia cepacia; Ps.cepacia 23; Mueller Hinton agar, inoculum 10⁶ CFU/ml, 37°C, 16 hours; read-out: Minimum Inhibitory Concentration (MIC: µg/ml)
Description: as §1

Ps.maltophilia GN 12873 = assay type: cell-based, Pseudomonas maltophilia; settings: Stenotrophomonas maltophilia, GN12873; Ps.maltophilia GN 12873 (β-Lactamase-producing strain); Mueller Hinton agar, inoculum 10⁶ CFU/ml, 37°C, 16 hours; read-out: Minimum Inhibitory Concentration (MIC: µg/ml)
Description: as §1

SMILES | MIC (A.calcoaceticus No. 4) [µg/mL] | MIC (C.freundii GN346/16) [µg/mL] | MIC (C.freundii GN346) [µg/mL] | MIC (E.cloacae 963) [µg/mL] | MIC (E.cloacae Nek 39) [µg/mL] | MIC (E.coli CSH(RE45)) [µg/mL] | MIC (E.coli CSH2 (RK1)) [µg/mL] | MIC (E.coli GN5482) [µg/mL] | MIC (E.coli NIHJ JC2) [µg/mL] | MIC (K.oxytoca GN10650) [µg/mL] | MIC (K.pneumoniae No. 42) [µg/mL] | MIC (K.pneumoniae PCI-602) [µg/mL] | MIC (M.morganii GN5407) [µg/mL] | MIC (P.vulgaris HX-19) [µg/mL] | MIC (P.vulgaris No. 33) [µg/mL] | MIC (Ps.aeruginosa AK 109) [µg/mL] | MIC (Ps.aeruginosa AKR17) [µg/mL] | MIC (Ps.aeruginosa IFO3445) [µg/mL] | MIC (S.aureus 209P NIHJ-JC1) [µg/mL] | MIC (S.aureus BB5703) [µg/mL] | also measured
CO/N=C(\C(=O)NC1C(=O)N2C(C(=O)[O-])=C(C[n+]3ccc4cc(O)c(O)cc4c3)CSC12)c1csc(N)n1 (stereo not drawn) [Ex. 1, 7-[2-(2-aminothiazol-4-yl)-2-methoxyiminoacetamido]-3-(6,7-dihydroxy-2-isoquinolinio)-methyl-3-cephem-4-carboxylate] | 0.2 (≈ 0.359 µM) | 0.78 (≈ 1.4 µM) | 25 (≈ 44.9 µM) | 0.025 (≈ 0.0449 µM) | 0.1 (≈ 0.18 µM) | 0.78 (≈ 1.4 µM) | < 0.006 | 0.39 (≈ 0.701 µM) | 0.05 (≈ 0.0898 µM) | 0.78 (≈ 1.4 µM) | 0.025 (≈ 0.0449 µM) | < 0.006 | 0.1 (≈ 0.18 µM) | < 0.006 | 0.1 (≈ 0.18 µM) | 0.78 (≈ 1.4 µM) | 100 (≈ 180 µM) | 0.78 (≈ 1.4 µM) | 1.56 (≈ 2.8 µM) | 3.12 (≈ 5.61 µM) | MIC (M.luteus ATCC9341): 0.1 µg/mL (≈ 0.18 µM); MIC (S.aureus JS1): 25 µg/mL (≈ 44.9 µM); MIC (S.epidermidis IAM12012): 0.78 µg/mL (≈ 1.4 µM); MIC (S.marcescens IAM 1184): 0.0125 µg/mL (≈ 0.0225 µM); MIC (S.marcescens No. 16-2): 3.12 µg/mL (≈ 5.61 µM); MIC (Ps.cepacia 23): 0.78 µg/mL (≈ 1.4 µM); MIC (Ps.maltophilia GN 12873): > 100 µg/mL
CON=C(C(=O)NC1C(=O)N2C(C(=O)[O-])=C(C[n+]3ccc4cccc(O)c4c3)CS[C@H]12)c1csc(N)n1 (stereo partly drawn) [Reference Ex. 3, 7-[2-(2-aminothiazol-4-yl)-2-methoxyiminoacetamido]-3-(8-hydroxy-2-isoquinolinio)methyl-3-cephem-4-carboxylate, reference compound] | 25 (≈ 46.2 µM) | 0.1 (≈ 0.185 µM) | 12.5 (≈ 23.1 µM) | 0.05 (≈ 0.0925 µM) | 0.78 (≈ 1.44 µM) | 0.39 (≈ 0.721 µM) | 0.025 (≈ 0.0462 µM) | 0.39 (≈ 0.721 µM) | 0.05 (≈ 0.0925 µM) | 3.12 (≈ 5.77 µM) | 0.1 (≈ 0.185 µM) | < 0.006 | 0.025 (≈ 0.0462 µM) | 0.0125 (≈ 0.0231 µM) | 0.05 (≈ 0.0925 µM) | 50 (≈ 92.5 µM) | > 100 | 12.5 (≈ 23.1 µM) | 0.78 (≈ 1.44 µM) | 3.12 (≈ 5.77 µM) | MIC (S.aureus JS1): 25 µg/mL (≈ 46.2 µM); MIC (S.marcescens IAM 1184): 0.025 µg/mL (≈ 0.0462 µM); MIC (S.marcescens No. 16-2): 3.12 µg/mL (≈ 5.77 µM); MIC (Ps.cepacia 23): 6.25 µg/mL (≈ 11.6 µM); MIC (Ps.maltophilia GN 12873): > 100 µg/mL
CON=C(C(=O)NC1C(=O)N2C(C(=O)[O-])=C(C[n+]3ccc4c(O)cccc4c3)CS[C@H]12)c1csc(N)n1 (stereo partly drawn) [Reference Ex. 2, 7-[2-(2-aminothiazol-4-yl)-2-methoxyiminoacetamido]-3-(5-hydroxy-2-isoquinolinio)methyl-3-cephem-4-carboxylate, reference compound] | 12.5 (≈ 23.1 µM) | 0.1 (≈ 0.185 µM) | 6.25 (≈ 11.6 µM) | 0.025 (≈ 0.0462 µM) | 0.78 (≈ 1.44 µM) | 1.56 (≈ 2.89 µM) | 0.025 (≈ 0.0462 µM) | 0.2 (≈ 0.37 µM) | 0.025 (≈ 0.0462 µM) | 12.5 (≈ 23.1 µM) | 0.1 (≈ 0.185 µM) | < 0.006 | 0.025 (≈ 0.0462 µM) | < 0.006 | 0.1 (≈ 0.185 µM) | 3.12 (≈ 5.77 µM) | > 100 | 3.12 (≈ 5.77 µM) | 0.39 (≈ 0.721 µM) | 3.12 (≈ 5.77 µM) | MIC (S.aureus JS1): 6.25 µg/mL (≈ 11.6 µM); MIC (S.marcescens IAM 1184): 0.025 µg/mL (≈ 0.0462 µM); MIC (S.marcescens No. 16-2): 3.12 µg/mL (≈ 5.77 µM); MIC (Ps.cepacia 23): 6.25 µg/mL (≈ 11.6 µM); MIC (Ps.maltophilia GN 12873): > 100 µg/mL
CC(C)(ON=C(C(=O)NC1C(=O)N2C(C(=O)[O-])=C(C[n+]3ccc4c(O)cccc4c3)CSC12)c1csc(N)n1)C(=O)O (stereo not drawn) [Reference Ex. 4, sodium 7-[2-(2-aminothiazol-4-yl)-2-(l-carboxylato-l-methylethoxyimino)acetamido]-3-(5-hydroxy-2-isoquinolinio)methyl-3-cephem-4-carboxylate, reference compound] | 25 | 1.56 | > 100 | 0.78 | 12.5 | 0.39 | 0.39 | 6.25 | 0.78 | 0.39 | 0.78 | 0.2 | 0.1 | 0.0125 | 0.1 | 6.25 | > 100 | 6.25 | 12.5 | 100 | MIC (S.aureus JS1): 100 µg/mL; MIC (S.marcescens IAM 1184): 0.2 µg/mL; MIC (S.marcescens No. 16-2): 6.25 µg/mL; MIC (Ps.cepacia 23): 1.56 µg/mL; MIC (Ps.maltophilia GN 12873): 50 µg/mL
